Laboratory results as given in ChEMBL document CHEMBL1147871, “Synthesis and antioxidant activity of new homocarnosine beta-cyclodextrin conjugates” (Eur J Med Chem, 2007).

Experiments:
Format in all cases: functional
[1] = Effect on copper-induced human LDL peroxidation assessed as inhibition of malonaldehyde production at 2 uM after 4 hrs; set-up: scale not given: the % may be the effect or the level left
[2] = Effect on copper-induced human LDL peroxidation assessed as inhibition of malonaldehyde production at 5 uM after 4 hrs; set-up: scale not given: the % may be the effect or the level left
[3] = Effect on copper-induced human LDL peroxidation assessed as inhibition of malonaldehyde production at 10 uM after 4 hrs; set-up: scale not given: the % may be the effect or the level left
[4] = Effect on copper-induced human LDL peroxidation assessed as inhibition of malonaldehyde production at 20 uM after 4 hrs; set-up: scale not given: the % may be the effect or the level left
[5] = Effect on copper-induced human LDL peroxidation assessed as inhibition of malonaldehyde production at 50 uM after 4 hrs; set-up: scale not given: the % may be the effect or the level left
[6] = Effect on copper-induced human LDL peroxidation assessed as inhibition of malonaldehyde production at 100 uM after 4 hrs; set-up: scale not given: the % may be the effect or the level left
[7] = Effect on copper-induced human LDL peroxidation assessed as inhibition of malonaldehyde production at 200 uM after 4 hrs; set-up: scale not given: the % may be the effect or the level left
[8] = Protective effect on copper-induced LDL oxidation at 20:1 copper to drug ratio relative to 40 uM copper
[9] = Protective effect on copper-induced LDL oxidation at 1:1.25 copper to drug ratio relative to 40 uM copper
[10] = Protective effect on copper-induced LDL oxidation at 1:2.5 copper to drug ratio relative to 40 uM copper
[11] = Protective effect on copper-induced LDL oxidation at 1:5 copper to drug ratio relative to 40 uM copper
[12] = Protective effect on copper-induced LDL oxidation at 8:1 copper to drug ratio relative to 40 uM copper
[13] = Protective effect on copper-induced LDL oxidation at 4:1 copper to drug ratio relative to 40 uM copper
[14] = Protective effect on copper-induced LDL oxidation at 2:1 copper to drug ratio relative to 40 uM copper

Compound	Activity [1] [%]	Activity [2] [%]	Activity [3] [%]	Activity [4] [%]	Activity [5] [%]	Activity [6] [%]	Activity [7] [%]	Activity [8] [%]	Activity [9] [%]	Activity [10] [%]	Activity [11] [%]	Activity [12] [%]	Activity [13] [%]	Activity [14] [%]
NCCC(=O)N[C@@H](Cc1c[nH]cn1)C(=O)O	0.28	0.93	1.38	2.72	9.13	15.1	22.5	0	9	15	22	1	1	3
OC[C@H]1O[C@@H]2O[C@H]3[C@H](O)[C@@H](O)[C@@H](O[C@H]4[C@H](O)[C@@H](O)[C@@H](O[C@H]5[C@H](O)[C@@H](O)[C@@H](O[C@H]6[C@H](O)[C@@H](O)[C@@H](O[C@H]7[C@H](O)[C@@H](O)[C@@H](O[C@H]8[C@H](O)[C@@H](O)[C@@H](O[C@H]1[C@H](O)[C@H]2O)O[C@@H]8CO)O[C@@H]7CO)O[C@@H]6CO)O[C@@H]5CO)O[C@@H]4CO)O[C@@H]3CO	0.11	0.38	0.65	1.26	3.87	6.94	10.7	–	–	–	–	–	–	–
NCCCC(=O)N[C@@H](Cc1cnc[nH]1)C(=O)O	0.31	1.02	1.86	2.5	8.28	12.1	17.6	0	8	12	18	1	2	3
